Experimental data: US20250186451A1, “METHODS OF TREATING CANCER WITH IAP ANTAGONIST COMPOUNDS AND COMBINATION THERAPIES” (Otsuka Pharmaceutical Co., Ltd., priority 2022, published 2025)
Entries after “also recorded” stand apart in the source; their conditions may differ. Read-outs that look alike come from different tables or passages of the source.

What was measured:
SUPT11 cells = experiment: Flow cytometry: annexin V/DAPI apoptosis and bead-based absolute cell count, SUPT11
Method: (§2) Cells were re-suspended in PBS containing CountBright beads (Invitrogen #C36950) to allow for measurement of the absolute cell number. Half-maximal inhibitory concentrations (IC50) was calculated using CalcuSyn software (BIOSOFT, Cambridge, UK).
(§3) Combination index (CI) and IC50 were determined using Calcusyn (BIOSOFT, Cambridge, UK).

PF382 cells = experiment: Flow cytometry: annexin V/DAPI apoptosis and bead-based absolute cell count, PF382; design: species or system human
Method: as §2, §3

MOLT4 cells = experiment: Flow cytometry: annexin V/DAPI apoptosis and bead-based absolute cell count, MOLT4; details: MOLT4, single agent, 5 days
Method: as §2

JURKAT cells = experiment: Flow cytometry: annexin V/DAPI apoptosis and bead-based absolute cell count, JURKAT; details: single agent, 5 days
Method: as §2

LOUCY cells [1] = experiment: Flow cytometry: annexin V/DAPI apoptosis and bead-based absolute cell count, LOUCY; design: species or system human; details: for IC50: Homo sapiens
Method: (§1) Combination index and IC50 were determined using Calcusyn (BIOSOFT, Cambridge, UK).

CCRF-CEM cells = experiment: Flow cytometry: annexin V/DAPI apoptosis and bead-based absolute cell count, CCRF-CEM; design: species or system human
Method: as §2, §3

MOLT16 cell line = experiment: Flow cytometry: annexin V/DAPI apoptosis and bead-based absolute cell count, MOLT16; design: species or system human; details: MOLT16, single agent, 5 days
Method: as §2, §3

ALL-SIL cells = experiment: Flow cytometry: annexin V/DAPI apoptosis and bead-based absolute cell count, ALL-SIL; design: species or system human
Method: as §1

LOUCY cells [2] = experiment: Western blot analysis in LOUCY cells; assay type: cell-based, human; details: combination = Compound I + Compound II
Excerpt: Membranes were probed with specific antibodies.

[3] = system: PDX-derived cells (CD45+ bulk)
[4] = system: leukemia initiating cells (LICs, CD45+, CD7+, CD19-, CD34+)

## C[C@@H]1CN(CC(=O)N2CC(C)(C)c3nc(CO)c(Cc4ccc(F)cc4)cc32)[C@@H](CN2CCOC[C@H]2C)CN1 [Compound I, 1-(6-(4-fluorobenzyl)-5-(hydroxymethyl)-3,3-dimethyl-2,3-dihydro-1H-pyrrolo [3,2-b]pyridin-1-yl)-2-((2R,5R)-5-methyl-2-(((R)-3-methylmorpholino)methyl)piperazin-1-yl)ethan-1-one]
SUPT11 cells; Homo sapiens, SUPT11, 120 h, Table 1, SUPT11, Compound I single agent, 5 days
  IC50: 309 nM
SUPT11 cells; Homo sapiens, SUPT11, Table 2, SUPT11 cells, Combination = DEX + Compound I 1:1
  IC50: 11.7 nM
SUPT11 cells; Table 1, SUPT11, Compound I single agent, 5 days
  IC50: 310 nM
PF382 cells; PF382, single agent, 5 days
  sensitivity to Compound I: least sensitive
PF382 cells; PF382, single agents or combination Compound I:DEX 1:1
  apoptosis induction: no apoptosis induction
MOLT4 cells
  sensitivity to Compound I: least sensitive
JURKAT cells
  sensitivity to Compound I: least sensitive
LOUCY cells [1]; 120 h, Table 1, Loucy, Compound I single agent, 5 days
  IC50: 190 nM
LOUCY cells [1]; Table 4, LOUCY cells, Combination = Compound II:Compound I 1:10
  IC50: 190 nM
CCRF-CEM cells; CCRF-CEM, single agent, 5 days
  sensitivity to Compound I: moderate sensitivity
CCRF-CEM cells; Homo sapiens, CCRF-CEM, 120 h
  IC50: 17800 nM
MOLT16 cell line
  sensitivity to Compound I: least sensitive
ALL-SIL cells; ALL-SIL, single agent, 5 days
  sensitivity to Compound I: moderate sensitivity
ALL-SIL cells; Homo sapiens, 120 h
  IC50: 11800 nM
LOUCY cells [2]
  PARP expression (Western blot): decreased expression
  cIAP2 expression (Western blot): decreased expression; also recorded: decrease
  cleaved caspase 7 (Western blot): increase

## CC1(C)CCC(CN2CCN(c3ccc(C(=O)NS(=O)(=O)c4ccc(NCC5CCOCC5)c([N+](=O)[O-])c4)c(Oc4cnc5[nH]ccc5c4)c3)CC2)=C(c2ccc(Cl)cc2)C1 [Compound II, 2-((1H-pyrrolo[2,3-b]pyridin-5-yl)oxy)-4-(4-((4′-chloro-5,5-dimethyl-3,4,5,6-tetrahydro-[1,1′-biphenyl]-2-yl)methyl)piperazin-1-yl)-N-((3-nitro-4-(((tetrahydro-2H-pyran-4-yl)methyl)amino)phenyl)sulfonyl)benzamide, reference compound]
LOUCY cells [1]; LOUCY, combination = Compound II:Compound I 1:10
  cell death: 27+0.9%

## C[C@@H]1C[C@H]2[C@@H]3CCC4=CC(=O)C=C[C@]4(C)[C@@]3(F)[C@@H](O)C[C@]2(C)[C@@]1(O)C(=O)CO [DEX, dexamethasone, reference compound]
SUPT11 cells; Homo sapiens, SUPT11, read-out: ED50, SUPT11 cells, DEX treatment alone
  EC50: ~2000 nM
SUPT11 cells; Homo sapiens, SUPT11, read-out: ED50, Table 2, SUPT11 cells, Combination = DEX + Compound I 1:1
  EC50: 2000 nM
[3]
  cytotoxic effect: 58±2%
CCRF-CEM cells; CCRF-CEM (DEX-resistant), combination = Compound I:DEX 1:1
  cell death: 20+3%
[4]
  cytotoxic effect: 62±2%
